From patent publication US20260217701A1, “SELECTIVE BET INHIBITORS AND USES THEREOF” (Tay Therapeutics Limited, priority 2022, published 2026)

System: lupus
Experiment: SLE (lupus) model: kidney histology lesion scores
Format: in vivo, MRL/MpJ-Faslpr mice
Details: for Total Glomerular Lesion (mean score) / Total Glomerular Lesion (table title: Mean Total Kidney Lesion Scores) / Total Tubular and Interstitial Lesion (mean score) / Mean total glomerular lesion score / Mean total kidney lesion score / Mean total tubular and interstitial lesion score: Week 19
Procedure: Female MRL/MpJ-Faslpr mice (The Jackson Laboratory) were used to assess the efficacy of Compound A in treating lupus. Starting when animals were 10 weeks of age, protein concentration in urine was measured using urine dipsticks.
At the start of the study, each group in the study had two animals that were 9 weeks old, and all others were 10 weeks old. Dosing of all animals with the test compounds began when the older animals were 11 weeks old. […] […] Dosing was at a consistent time each dosing day throughout the study.
Compound A may be formulated as illustrated in Experimental Method A (see Table 2E.). […] A stock solution of Compound A in DMSO (stock solution concentration of Compound A of 40 mg/mL) was prepared and aliquots for weekly preparations were frozen at −20° C. On each preparation day, a stock solution aliquot was thawed and diluted with other vehicle components to the desired concentration. Formulated Compound A and vehicle were at room temperature for dosing.
The study began when the older animals were 11 weeks old, and concluded when the older animals were 19 weeks old. Body weight was recorded once a week, with the exception of two weight measurements taken the first week of the study (when the older animals were 11 weeks old). Proteinuria was measured in the urine of animals with urine dipsticks once a week, starting when the older animals were 10 weeks old. […] Blood samples were taken retro-orbitally at the start of the study to establish a baseline (15 animals, 3 per group), and when the older animals were 16 weeks (all animals) and when animals were 19 weeks (all animals) at the conclusion of the study. Blood urea nitrogen (BUN) was measured in all animals at study termination in blood samples. After blood collection, animals were euthanized, perfused with PBS, and the left kidneys were collected and weighed and fixed in 10% buffered formalin. Left kidneys were then processed to a formalin-fixed, paraffin-embedded (FFPE) block, and histology was analyzed in Periodic Acid-Schiff-stained sections (1 section per slide), using the criteria described in Alperovich et al., Lupus, 16:18-24 (2007). Right kidneys were weighed and snap-frozen at −80° C. Spleens were also collected and weighed. SLE in animals treated with a BET inhibitor and vehicle.

Structure (SMILES): Cn1cc(-c2ccccc2)c(-c2cn(C)c(=O)c3[nH]c(-c4cnn(C(F)(F)F)c4)cc23)cc1=O [Compound A, 6-methyl-4-(1-methyl-2-oxo-5-phenyl-1,2-dihydropyridin-4-yl)-2-(1-(trifluoromethyl)-1H-pyrazol-4-yl)-1,6-dihydro-7H-pyrrolo[2,3-c]pyridin-7-one]
- Total Glomerular Lesion (mean score) (Compound A 1 mg/kg PO QD): 3.9
- Total Glomerular Lesion (table title: Mean Total Kidney Lesion Scores) (Compound A 1 mg/kg PO QD): 5.1
- Total Tubular and Interstitial Lesion (mean score) (Compound A 1 mg/kg PO QD): 1.2
- Total Glomerular Lesion (mean score) (Compound A 3 mg/kg PO QD): 2.7
- Total Glomerular Lesion (table title: Mean Total Kidney Lesion Scores) (Compound A 3 mg/kg PO QD): 3.8
- Total Tubular and Interstitial Lesion (mean score) (Compound A 3 mg/kg PO QD): 1.1
- Total Glomerular Lesion (mean score) (Compound A 10 mg/kg PO QD): 1.1
- Total Glomerular Lesion (table title: Mean Total Kidney Lesion Scores) (Compound A 10 mg/kg PO QD): 1.6
- Total Tubular and Interstitial Lesion (mean score) (Compound A 10 mg/kg PO QD): 0.5
- Mean total glomerular lesion score (1 mg/kg): about 3.9
- Mean total kidney lesion score (1 mg/kg): about 5.1
- Mean total tubular and interstitial lesion score (1 mg/kg): about 1.2
- Mean total glomerular lesion score (3 mg/kg): about 2.7
- Mean total kidney lesion score (3 mg/kg): about 3.8
- Mean total tubular and interstitial lesion score (3 mg/kg): about 1.1
- Mean total glomerular lesion score (10 mg/kg): about 1.1
- Mean total kidney lesion score (10 mg/kg): about 1.6
- Mean total tubular and interstitial lesion score (10 mg/kg): about 0.5
- Kidney histology images (FIGS. 30H-30L), disease suppression (increasing dosage): dose dependent improvement in disease suppression
